{"source": "patent US6737383B1", "about": "“Herbicidal oxadiazolidines” (priority 1999, dated 2004)", "key": {"sugar beet": {"test_system": "sugar beet", "test": "Test B pre/postemergence sugar beet", "format": "in vivo, Beta vulgaris", "procedure,_shortened": "(§1)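 Herbicidal effect was estimated by eye on a ten-point control scale after plants spent twelve to sixteen days in a greenhouse following soil or foliar treatment. Foliar sprays targeted plants at one to four leaves; all doses were formulated in a non-phytotoxic solvent with surfactant.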"}, "wild oat": {"test_system": "wild oat", "test": "Test B pre/postemergence wild oat", "format": "in vivo, Avena fatua", "procedure,_shortened": "as §1"}, "giant foxtail": {"test_system": "giant foxtail", "test": "Test B pre/postemergence giant foxtail", "format": "in vivo, Setaria faberii", "procedure,_shortened": "as §1"}, "cocklebur": {"test_system": "cocklebur", "test": "Test B pre/postemergence cocklebur", "format": "in vivo, Xanthium strumarium", "procedure,_shortened": "as §1"}, "corn": {"test_system": "corn", "test": "Test B pre/postemergence corn", "format": "in vivo, Zea mays", "procedure,_shortened": "as §1"}, "pigweed": {"test_system": "pigweed", "test": "Test B pre/postemergence pigweed", "format": "in vivo, Amaranthus retroflexus", "procedure,_shortened": "as §1"}, "rice": {"test_system": "rice", "test": "Test B flood test rice", "format": "in vivo, Oryza sativa", "procedure,_shortened": "(§2)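 Plants were grown to the 2-leaf stage before treatment with test chemical, then held in a greenhouse for twelve to sixteen days. Injury was visually rated against untreated controls on a 0–10 scale, where 0 is no effect and 10 is complete control.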"}, "soybean": {"test_system": "soybean", "test": "Test B pre/postemergence soybean", "format": "in vivo, Glycine max", "procedure,_shortened": "as §1"}, "rape": {"test_system": "rape", "test": "Test B pre/postemergence rape", "format": "in vivo, Brassica napus", "procedure,_shortened": "as §1"}, "velvetleaf": {"test_system": "velvetleaf", "test": "Test B pre/postemergence velvetleaf", "format": "in vivo, Abutilon theophrasti", "procedure,_shortened": "as §1"}, "duck salad": {"test_system": "duck salad", "test": "Test B flood test duck salad", "format": "in vivo, Heteranthera limosa", "procedure,_shortened": "as §2"}, "smallflower flatsedge": {"test_system": "smallflower flatsedge", "test": "Test B flood test smallflower flatsedge", "format": "in vivo, Cyperus difformis", "procedure,_shortened": "as §2"}, "purple nutsedge": {"test_system": "purple nutsedge", "test": "Test B pre/postemergence purple nutsedge", "format": "in vivo, Cyperus rotundus", "procedure,_shortened": "as §1"}, "surinam grass": {"test_system": "surinam grass", "test": "Test B pre/postemergence surinam grass", "format": "in vivo, Brachiaria decumbens", "procedure,_shortened": "as §1"}, "wheat": {"test_system": "wheat", "test": "Test B pre/postemergence wheat", "format": "in vivo, Triticum aestivum", "procedure,_shortened": "as §1"}, "[1]": {"conditions": "Postemergence, Rate 62 g/ha, scale 0 to 10, 0 is no effect, 10 is complete control"}, "[2]": {"conditions": "Postemergence, Rate 125 g/ha, scale of 0 to 10 where 0 is no effect and 10 is complete control"}, "[3]": {"conditions": "Postemergence, Rate 250 g/ha, scale of 0 to 10, 0 is no effect, 10 is complete control"}, "[4]": {"conditions": "Preemergence, Rate 62 g/ha, scale of 0 to 10 where 0 is no effect and 10 is complete control"}, "[5]": {"conditions": "Preemergence, Rate 125 g/ha, scale of 0 to 10 where 0 is no effect and 10 is complete control"}, "[6]": {"conditions": "Preemergence, Rate 250 g/ha, scale 0 to 10 (0 no effect, 10 complete control)"}, "[7]": {"conditions": "Preemergence, Rate 500 g/ha, scale of 0 to 10 where 0 is no effect and 10 is complete control"}, "[8]": {"conditions": "Postemergence, Rate 500 g/ha, scale of 0 to 10 where 0 is no effect and 10 is complete control"}, "[9]": {"conditions": "Rate 62 g/ha, flood test species, Pre-emergence, visual evaluation after twelve to sixteen days"}, "[10]": {"conditions": "Rate 125 g/ha, under heading Pre-emergence, flood test species, visual evaluation after twelve to sixteen days"}, "[11]": {"conditions": "Rate 250 g/ha, Pre-emergence (flood test species), scale 0 to 10, 0 is no effect, 10 is complete control"}, "[12]": {"conditions": "Rate 500 g/ha, Pre-emergence section of Table B, 0 to 10 scale (0 no effect, 10 complete control)"}}}
{"smiles": "CC(C)N(C(=O)n1oc(=O)n(CC(=O)C2CCC2)c1=O)c1ccc(Cl)cc1", "note": "[Compound 643]", "values": [{"measurement": "Plant response rating, Sugarbeets", "setting": "sugar beet; [1]", "result": 0}, {"measurement": "Sugarbeets plant response rating", "setting": "sugar beet; [2]", "result": 0}, {"measurement": "Sugarbeets plant response rating", "setting": "sugar beet; [3]", "result": 0}, {"measurement": "Sugarbeets plant response rating", "setting": "sugar beet; [4]", "result": 0}, {"measurement": "Sugarbeets plant response rating", "setting": "sugar beet; [5]", "result": 0}, {"measurement": "Plant response rating, Sugarbeets", "setting": "sugar beet; [6]", "result": 0}, {"measurement": "Plant response rating, Sugarbeets", "setting": "sugar beet; [7]", "result": 0}, {"measurement": "Plant response rating, Wild oats", "setting": "wild oat; [1]", "result": 0}, {"measurement": "Wild oats plant response rating", "setting": "wild oat; [2]", "result": 1}, {"measurement": "Wild oats plant response rating", "setting": "wild oat; [3]", "result": 1}, {"measurement": "Wild oats plant response rating", "setting": "wild oat; [4]", "result": 0}, {"measurement": "Wild oats plant response rating", "setting": "wild oat; [5]", "result": 0}, {"measurement": "Plant response rating, Wild oats", "setting": "wild oat; [6]", "result": 0}, {"measurement": "Plant response rating, Wild oats", "setting": "wild oat; [7]", "result": 1}, {"measurement": "Plant response rating, Giant foxtail", "setting": "giant foxtail; [1]", "result": 0}, {"measurement": "Giant foxtail plant response rating", "setting": "giant foxtail; [2]", "result": 0}, {"measurement": "Giant foxtail plant response rating", "setting": "giant foxtail; [3]", "result": 0}, {"measurement": "Plant response rating, Giant foxtail", "setting": "giant foxtail; [8]", "result": 0}, {"measurement": "Giant foxtail plant response rating", "setting": "giant foxtail; [4]", "result": 6}, {"measurement": "Giant foxtail plant response rating", "setting": "giant foxtail; [5]", "result": 8}, {"measurement": "Plant response rating, Giant foxtail", "setting": "giant foxtail; [6]", "result": 10}, {"measurement": "Plant response rating, Giant foxtail", "setting": "giant foxtail; [7]", "result": 10}, {"measurement": "Plant response rating, Cocklebur", "setting": "cocklebur; [1]", "result": 0}, {"measurement": "Cocklebur plant response rating", "setting": "cocklebur; [2]", "result": 0}, {"measurement": "Cocklebur plant response rating", "setting": "cocklebur; [3]", "result": 0}, {"measurement": "Plant response rating, Cocklebur", "setting": "cocklebur; [8]", "result": 0}, {"measurement": "Cocklebur plant response rating", "setting": "cocklebur; [4]", "result": 0}, {"measurement": "Cocklebur plant response rating", "setting": "cocklebur; [5]", "result": 0}, {"measurement": "Plant response rating, Cocklebur", "setting": "cocklebur; [6]", "result": 0}, {"measurement": "Plant response rating, Cocklebur", "setting": "cocklebur; [7]", "result": 0}, {"measurement": "Plant response rating, Corn", "setting": "corn; [1]", "result": 0}, {"measurement": "Corn plant response rating", "setting": "corn; [2]", "result": 0}, {"measurement": "Corn plant response rating", "setting": "corn; [3]", "result": 0}, {"measurement": "Plant response rating, Corn", "setting": "corn; [8]", "result": 0}, {"measurement": "Corn plant response rating", "setting": "corn; [4]", "result": 0}, {"measurement": "Corn plant response rating", "setting": "corn; [5]", "result": 0}, {"measurement": "Plant response rating, Corn", "setting": "corn; [6]", "result": 0}, {"measurement": "Plant response rating, Corn", "setting": "corn; [7]", "result": 0}, {"measurement": "Plant response rating, Redroot pigweed", "setting": "pigweed; [1]", "result": 0}, {"measurement": "Redroot pigweed plant response rating", "setting": "pigweed; [2]", "result": 0}, {"measurement": "Redroot pigweed plant response rating", "setting": "pigweed; [3]", "result": 0}, {"measurement": "Redroot pigweed plant response rating", "setting": "pigweed; [4]", "result": 0}, {"measurement": "Redroot pigweed plant response rating", "setting": "pigweed; [5]", "result": 0}, {"measurement": "Plant response rating, Redroot pigweed", "setting": "pigweed; [6]", "result": 0}, {"measurement": "Plant response rating, Redroot pigweed", "setting": "pigweed; [7]", "result": 5}, {"measurement": "Plant response rating, Rice (0 to 10 scale, 0 is no effect, 10 is complete control)", "setting": "rice; [9]", "result": 0}, {"measurement": "Rice plant response rating (0 to 10 scale, 0 is no effect, 10 is complete control)", "setting": "rice; [10]", "result": 0}, {"measurement": "Rice plant response rating", "setting": "rice; [11]", "result": 0}, {"measurement": "Rice plant response rating", "setting": "rice; [12]", "result": 0}, {"measurement": "Plant response rating, Soybean", "setting": "soybean; [1]", "result": 1}, {"measurement": "Soybean plant response rating", "setting": "soybean; [2]", "result": 1}, {"measurement": "Soybean plant response rating", "setting": "soybean; [3]", "result": 1}, {"measurement": "Soybean plant response rating", "setting": "soybean; [4]", "result": 0}, {"measurement": "Soybean plant response rating", "setting": "soybean; [5]", "result": 0}, {"measurement": "Plant response rating, Soybean", "setting": "soybean; [6]", "result": 0}, {"measurement": "Plant response rating, Soybean", "setting": "soybean; [7]", "result": 0}, {"measurement": "Rape plant response rating", "setting": "rape; [2]", "result": 0}, {"measurement": "Rape plant response rating", "setting": "rape; [3]", "result": 0}, {"measurement": "Plant response rating, Rape", "setting": "rape; [8]", "result": 0}, {"measurement": "Rape plant response rating", "setting": "rape; [4]", "result": 0}, {"measurement": "Rape plant response rating", "setting": "rape; [5]", "result": 0}, {"measurement": "Plant response rating, Rape", "setting": "rape; [6]", "result": 0}, {"measurement": "Plant response rating, Rape", "setting": "rape; [7]", "result": 6}, {"measurement": "Plant response rating, Velvetleaf", "setting": "velvetleaf; [1]", "result": 0}, {"measurement": "Velvetleaf plant response rating", "setting": "velvetleaf; [2]", "result": 0}, {"measurement": "Velvetleaf plant response rating", "setting": "velvetleaf; [3]", "result": 0}, {"measurement": "Velvetleaf plant response rating", "setting": "velvetleaf; [4]", "result": 0}, {"measurement": "Velvetleaf plant response rating", "setting": "velvetleaf; [5]", "result": 0}, {"measurement": "Plant response rating, Velvetleaf", "setting": "velvetleaf; [6]", "result": 0}, {"measurement": "Plant response rating, Velvetleaf", "setting": "velvetleaf; [7]", "result": 0}, {"measurement": "Plant response rating, Ducksalad (0 to 10 scale, 0 is no effect, 10 is complete control)", "setting": "duck salad; [9]", "result": 0}, {"measurement": "Ducksalad plant response rating (0 to 10 scale, 0 is no effect, 10 is complete control)", "setting": "duck salad; [10]", "result": 0}, {"measurement": "Ducksalad plant response rating", "setting": "duck salad; [11]", "result": 0}, {"measurement": "Ducksalad plant response rating", "setting": "duck salad; [12]", "result": 0}, {"measurement": "Plant response rating, S. Flatsedge (0 to 10 scale, 0 is no effect, 10 is complete control)", "setting": "smallflower flatsedge; [9]", "result": 0}, {"measurement": "S. Flatsedge plant response rating (0 to 10 scale, 0 is no effect, 10 is complete control)", "setting": "smallflower flatsedge; [10]", "result": 0}, {"measurement": "S. Flatsedge plant response rating", "setting": "smallflower flatsedge; [11]", "result": 0}, {"measurement": "S. Flatsedge plant response rating", "setting": "smallflower flatsedge; [12]", "result": 0}, {"measurement": "Plant response rating, Nutsedge", "setting": "purple nutsedge; [1]", "result": 0}, {"measurement": "Nutsedge plant response rating", "setting": "purple nutsedge; [2]", "result": 0}, {"measurement": "Nutsedge plant response rating", "setting": "purple nutsedge; [3]", "result": 0}, {"measurement": "Plant response rating, Nutsedge", "setting": "purple nutsedge; [8]", "result": 0}, {"measurement": "Nutsedge plant response rating", "setting": "purple nutsedge; [4]", "result": 0}, {"measurement": "Nutsedge plant response rating", "setting": "purple nutsedge; [5]", "result": 0}, {"measurement": "Plant response rating, Nutsedge", "setting": "purple nutsedge; [6]", "result": 0}, {"measurement": "Plant response rating, Nutsedge", "setting": "purple nutsedge; [7]", "result": 0}, {"measurement": "Plant response rating, B. signalgrass", "setting": "surinam grass; [1]", "result": 0}, {"measurement": "Plant response rating, B. signalgrass", "setting": "surinam grass; [2]", "result": 0}, {"measurement": "B. signalgrass plant response rating", "setting": "surinam grass; [3]", "result": 0}, {"measurement": "Plant response rating, B. signalgrass", "setting": "surinam grass; [8]", "result": 2}, {"measurement": "B. signalgrass plant response rating", "setting": "surinam grass; [4]", "result": 0}, {"measurement": "B. signalgrass plant response rating", "setting": "surinam grass; [5]", "result": 2}, {"measurement": "Plant response rating, B. signalgrass", "setting": "surinam grass; [6]", "result": 2}, {"measurement": "Plant response rating, B. signalgrass", "setting": "surinam grass; [7]", "result": 6}, {"measurement": "Plant response rating, Wheat", "setting": "wheat; [1]", "result": 0}, {"measurement": "Wheat plant response rating", "setting": "wheat; [2]", "result": 0}, {"measurement": "Wheat plant response rating", "setting": "wheat; [3]", "result": 0}, {"measurement": "Wheat plant response rating", "setting": "wheat; [4]", "result": 0}, {"measurement": "Wheat plant response rating", "setting": "wheat; [5]", "result": 0}, {"measurement": "Plant response rating, Wheat", "setting": "wheat; [6]", "result": 0}, {"measurement": "Plant response rating, Wheat", "setting": "wheat; [7]", "result": 0}]}
